Source: patent US12077503B2, “Substituted cyclic amides and their use as herbicides” (FMC CORPORATION, priority 2015, dated 2024)
Like-named read-outs stand apart in the source and are kept apart here.

Tests used:
Format in all cases: in vivo
Kochia (Kochia scoparia) [1] = assay: Test A preemergence; conditions: Bassia scoparia, pre-emergence, 240 h, preemergence; for pest or weed control at 500 g/ha: 500 g ai/ha
Procedure, shortened: (§1)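 Compounds were formulated in a non-phytotoxic solvent mixture with surfactant and applied as a preemergence directed soil spray after seeding, or sprayed postemergence over plants 2 to 10 cm tall at the one- to two-leaf stage. Evaluation after about 10 d compared treated with untreated controls, using a scale from 0 (no effect) to 100 (complete control).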

[2] = tested on: barnyardgrass (Echinochloa crus-galli); assay: Test A preemergence; conditions: Echinochloa crus-galli, pre-emergence, 240 h, preemergence; for pest or weed control at 125 g/ha: 125 g ai/ha, 0 to 100 scale where 0 is no effect and 100 is complete control; for pest or weed control at 500 g/ha: 500 g ai/ha
Procedure, shortened: as §1

[3] = tested on: giant foxtail (Setaria faberii); assay: Test A preemergence; conditions: Setaria faberi, pre-emergence, 240 h, preemergence; for pest or weed control at 125 g/ha: 125 g ai/ha; for pest or weed control at 500 g/ha: 500 g ai/ha
Procedure, shortened: as §1

[4] = tested on: pigweed (Amaranthus retroflexus); assay: Test A preemergence; conditions: Amaranthus retroflexus, pre-emergence, 240 h, preemergence; for pest or weed control at 125 g/ha: 125 g ai/ha; for pest or weed control at 500 g/ha: 500 g ai/ha
[5] = tested on: ragweed (common ragweed, Ambrosia elatior); assay: Test A preemergence; conditions: Ambrosia artemisiifolia, pre-emergence, 240 h, preemergence; for pest or weed control at 125 g/ha: 125 g ai/ha; for pest or weed control at 500 g/ha: 500 g ai/ha
Procedure, shortened: as §1

[6] = tested on: ryegrass, Italian (Italian ryegrass, Lolium multiflorum); assay: Test A preemergence; conditions: Lolium multiflorum, pre-emergence, 240 h, preemergence, 0 to 100 scale where 0 is no effect and 100 is complete control; for pest or weed control at 125 g/ha: 125 g ai/ha
Procedure, shortened: as §1

[7] = tested on: Galium (catchweed bedstraw, Galium aparine); assay: Test A postemergence; conditions: Galium, post-emergence, 240 h, postemergence; for pest or weed control at 125 g/ha: 125 g ai/ha
Procedure, shortened: as §1

Kochia (Kochia scoparia) [8] = assay: Test A postemergence; conditions: Bassia scoparia, post-emergence, 240 h, postemergence; for pest or weed control at 125 g/ha: 125 g ai/ha
Procedure, shortened: as §1

[9] = tested on: barnyardgrass (Echinochloa crus-galli); assay: Test A postemergence; conditions: Echinochloa crus-galli, post-emergence, 240 h, postemergence; for pest or weed control at 125 g/ha: 125 g ai/ha
Procedure, shortened: as §1

[10] = tested on: blackgrass (Alopecurus myosuroides); assay: Test A postemergence; conditions: Alopecurus myosuroides, post-emergence, 240 h, postemergence; for pest or weed control at 125 g/ha: 125 g ai/ha
Procedure, shortened: as §1

corn (Zea mays) = assay: Test A postemergence; conditions: Zea mays, post-emergence, 240 h, postemergence
Procedure, shortened: as §1

[11] = tested on: giant foxtail (Setaria faberii); assay: Test A postemergence; conditions: Setaria faberi, post-emergence, 240 h, postemergence; for pest or weed control at 125 g/ha: 125 g ai/ha
Procedure, shortened: as §1

[12] = tested on: pigweed (Amaranthus retroflexus); assay: Test A postemergence; conditions: Amaranthus retroflexus, post-emergence, 240 h, postemergence; for pest or weed control at 125 g/ha: 125 g ai/ha
Procedure, shortened: as §1

[13] = tested on: ragweed (common ragweed, Ambrosia elatior); assay: Test A postemergence; conditions: Ambrosia artemisiifolia, post-emergence, 240 h, postemergence; for pest or weed control at 125 g/ha: 125 g ai/ha
Procedure, shortened: as §1

[14] = tested on: wheat (Triticum aestivum); assay: Test A postemergence; conditions: Triticum aestivum, post-emergence, 240 h, postemergence; for plant injury at 125 g/ha: 125 g ai/ha
Procedure, shortened: as §1

CN1C[C@H](c2csc3ccccc23)[C@@H](C(=O)Nc2ccccc2F)C1=O [Compound 1114]
pest or weed control at 500 g/ha (Kochia (Kochia scoparia) [1]; 0 to 100 scale where 0 is no effect and 100 is complete control, read-out: Kochia plant response rating): 60%
pest or weed control at 125 g/ha ([2]; approx. 10 d, read-out: Barnyardgrass plant response rating): 90%
pest or weed control at 500 g/ha ([2]; visual injury rating about 10 d after treatment, 0 to 100 scale (0 no effect, 100 complete control), read-out: Barnyardgrass plant response rating): 90%
pest or weed control at 125 g/ha ([3]; 0 to 100 scale where 0 is no effect and 100 is complete control, approx. 10 d, read-out: Foxtail, Giant plant response rating): 90%
pest or weed control at 500 g/ha ([3]; 0 to 100 scale where 0 is no effect and 100 is complete control, read-out: Foxtail, Giant plant response rating): 90%
pest or weed control at 125 g/ha ([4]; 0 to 100 scale where 0 is no effect and 100 is complete control, approx. 10 d, read-out: Pigweed plant response rating): 0%
pest or weed control at 500 g/ha ([4]; 0 to 100 scale where 0 is no effect and 100 is complete control, read-out: Pigweed plant response rating): 0%
pest or weed control at 125 g/ha ([5]; 0 to 100 scale where 0 is no effect and 100 is complete control, approx. 10 d, read-out: Ragweed plant response rating): 0%
pest or weed control at 500 g/ha ([5]; 0 to 100 scale where 0 is no effect and 100 is complete control, read-out: Ragweed plant response rating): 0%
pest or weed control at 125 g/ha ([6]; approx. 10 d, read-out: Ryegrass, Italian plant response rating): 0%
pest or weed control at 500 g/ha ([6]; 500 g ai/ha, read-out: Ryegrass, Italian plant response rating): 20%
pest or weed control at 125 g/ha ([7]; visual injury on 0 to 100 scale (0 no effect, 100 complete control), approx. 10 d, read-out: Galium plant response rating): 0%
pest or weed control at 500 g/ha ([7]; 500 g ai/ha, 0 to 100 scale, 0 is no effect, 100 is complete control, read-out: Galium plant response rating): 20%
pest or weed control at 125 g/ha (Kochia (Kochia scoparia) [8]; visual injury on 0 to 100 scale (0 no effect, 100 complete control), approx. 10 d, read-out: Kochia plant response rating): 0%
pest or weed control at 500 g/ha (Kochia (Kochia scoparia) [8]; 500 g ai/ha, 0 to 100 scale, 0 is no effect, 100 is complete control, read-out: Kochia plant response rating): 20%
pest or weed control at 125 g/ha ([9]; visual injury on 0 to 100 scale (0 no effect, 100 complete control), approx. 10 d, read-out: Barnyardgrass plant response rating): 80%
pest or weed control at 500 g/ha ([9]; 500 g ai/ha, 0 to 100 scale, 0 is no effect, 100 is complete control, read-out: Barnyardgrass plant response rating): 90%
pest or weed control at 125 g/ha ([10]; visual injury on 0 to 100 scale (0 no effect, 100 complete control), approx. 10 d, read-out: Blackgrass plant response rating): 20%
pest or weed control at 500 g/ha ([10]; 500 g ai/ha, 0 to 100 scale, 0 is no effect, 100 is complete control, read-out: Blackgrass plant response rating): 60%
plant injury at 125 g/ha (corn (Zea mays); 125 g ai/ha, visual injury on 0 to 100 scale (0 no effect, 100 complete control), approx. 10 d, read-out: Corn plant response rating): 0%
plant injury at 500 g/ha (corn (Zea mays); 500 g ai/ha, 0 to 100 scale, 0 is no effect, 100 is complete control, read-out: Corn plant response rating): 70%
pest or weed control at 125 g/ha ([11]; visual injury on 0 to 100 scale (0 no effect, 100 complete control), approx. 10 d, read-out: Foxtail, Giant plant response rating): 90%
pest or weed control at 500 g/ha ([11]; 500 g ai/ha, 0 to 100 scale, 0 is no effect, 100 is complete control, read-out: Foxtail, Giant plant response rating): 90%
pest or weed control at 125 g/ha ([12]; visual injury on 0 to 100 scale (0 no effect, 100 complete control), approx. 10 d, read-out: Pigweed plant response rating): 0%
pest or weed control at 500 g/ha ([12]; 500 g ai/ha, 0 to 100 scale, 0 is no effect, 100 is complete control, read-out: Pigweed plant response rating): 0%
pest or weed control at 125 g/ha ([13]; visual injury on 0 to 100 scale (0 no effect, 100 complete control), approx. 10 d, read-out: Ragweed plant response rating): 0%
pest or weed control at 500 g/ha ([13]; 500 g ai/ha, 0 to 100 scale, 0 is no effect, 100 is complete control, read-out: Ragweed plant response rating): 0%
plant injury at 125 g/ha ([14]; visual injury on 0 to 100 scale (0 no effect, 100 complete control), approx. 10 d, read-out: Wheat plant response rating): 0%
plant injury at 500 g/ha ([14]; 500 g ai/ha, 0 to 100 scale, 0 is no effect, 100 is complete control, read-out: Wheat plant response rating): 30%

Cc1ccc(NC(=O)[C@H]2C(=O)N(C)C[C@@H]2c2cc(F)cc(F)c2)c(F)c1 [Compound 760]
pest or weed control at 125 g/ha (Kochia (Kochia scoparia) [1]; 125 g ai/ha, visual rating after approx. 10 d, 0 to 100 scale where 0 is no effect and 100 is complete control, read-out: Plant response rating, Kochia): 0%
pest or weed control at 500 g/ha (Kochia (Kochia scoparia) [1]; 0 to 100 scale, 0 = no effect, 100 = complete control, read-out: Plant response rating, Kochia): 60%
pest or weed control at 125 g/ha ([2]; visual rating after approx. 10 d, read-out: Plant response rating, Barnyardgrass): 100%
pest or weed control at 500 g/ha ([2]; 0 to 100 scale, 0 = no effect, 100 = complete control, read-out: Plant response rating, Barnyardgrass): 100%
pest or weed control at 125 g/ha ([3]; visual rating after approx. 10 d, 0 to 100 scale where 0 is no effect and 100 is complete control, read-out: Plant response rating, Foxtail, Giant): 100%
pest or weed control at 500 g/ha ([3]; 0 to 100 scale, 0 = no effect, 100 = complete control, read-out: Plant response rating, Foxtail, Giant): 100%
pest or weed control at 125 g/ha ([4]; visual rating after approx. 10 d, 0 to 100 scale where 0 is no effect and 100 is complete control, read-out: Plant response rating, Pigweed): 0%
pest or weed control at 500 g/ha ([4]; 0 to 100 scale, 0 = no effect, 100 = complete control, read-out: Plant response rating, Pigweed): 0%
pest or weed control at 125 g/ha ([5]; visual rating after approx. 10 d, 0 to 100 scale where 0 is no effect and 100 is complete control, read-out: Plant response rating, Ragweed): 0%
pest or weed control at 500 g/ha ([5]; 0 to 100 scale, 0 = no effect, 100 = complete control, read-out: Plant response rating, Ragweed): 0%
pest or weed control at 125 g/ha ([6]; visual rating after approx. 10 d, read-out: Plant response rating, Ryegrass, Italian): 0%
pest or weed control at 125 g/ha ([7]; visual injury after approximately 10 d, 0 to 100 scale (0 no effect, 100 complete control), read-out: Plant response rating, Galium): 0%
pest or weed control at 125 g/ha (Kochia (Kochia scoparia) [8]; visual injury after approximately 10 d, 0 to 100 scale (0 no effect, 100 complete control), read-out: Plant response rating, Kochia): 0%
pest or weed control at 125 g/ha ([9]; visual injury after approximately 10 d, 0 to 100 scale (0 no effect, 100 complete control), read-out: Plant response rating, Barnyardgrass): 80%
pest or weed control at 125 g/ha ([10]; visual injury after approximately 10 d, 0 to 100 scale (0 no effect, 100 complete control), read-out: Plant response rating, Blackgrass): 0%
Corn plant response rating (crop injury, 0 = no effect, 100 = complete kill) at 125 g/ha (corn (Zea mays); 125 g ai/ha, visual injury after approximately 10 d, 0 to 100 scale (0 no effect, 100 complete control)): 0%
pest or weed control at 125 g/ha ([11]; visual injury after approximately 10 d, 0 to 100 scale (0 no effect, 100 complete control), read-out: Plant response rating, Foxtail, Giant): 80%
pest or weed control at 125 g/ha ([12]; visual injury after approximately 10 d, 0 to 100 scale (0 no effect, 100 complete control), read-out: Plant response rating, Pigweed): 0%
pest or weed control at 125 g/ha ([13]; visual injury after approximately 10 d, 0 to 100 scale (0 no effect, 100 complete control), read-out: Plant response rating, Ragweed): 0%
plant injury at 125 g/ha ([14]; visual injury after approximately 10 d, 0 to 100 scale (0 no effect, 100 complete control), read-out: Plant response rating, Wheat): 0%
